Like-named read-outs stand apart in the source and are kept apart here.
Tests used:
tadpole [1] = experiment: Anesthetic potency obtained by use of a tadpole; assay type: in vivo; conditions: Table 6; potency converted to gaseous system; partial pressure ratio, methanol as 1.00
tadpole [2] = conditions: cited from earlier work
tadpole [3] = experiment: Anesthetic potency obtained by use of a tadpole; conditions: in vivo
From the text: In Table 3, potency is a value representing intensity of the anesthetics and is shown as values obtained by use of a tadpole.

[4] = Adsorption from aqueous phase on polyvinyl alcohol film
[5] = Adsorption from aqueous phase on polystyrene film
[6] = Adsorption from aqueous phase on uncoated crystal oscillator
[7] = Adsorption from aqueous phase on poly(methyl-L-glutamate) film
[8] = Comparative Example 6; Polyvinyl chloride, 45° C.; halothane 9.48×10^-4 M
[9] = Example 11; CTAB^+ /PSS^-; halothane 9.48×10^-4 M
[10] = for Adsorbed amounts / Frequency Changes -ΔF: Example 9, 2C18 N^+ 2C1 /PSS^-, halothane 9.48×10^-4 M aqueous
Procedure: In FIG. 6, the immobilized bilayer film is cast on a silver-deposited electrode 2 of the crystal oscillator 1 [or on both sides of a silver-electrode-deposited piezoelectric crystal (9 MHz; AT-cut)] and dipped into deionized water in cell 3, bitter or odorous substances are injected thereinto as a solution thereof through an irritant-injecting device 4, frequency changes after the injection are measured by a frequency measuring means (not shown) constituting the crystal oscillator 1, and adsorbed amounts of bitter or odorous substances onto the immobilized bilayer film are determined from proportionality thereof to the frequency changes thus obtained.
The partition coefficient means a ratio of the adsorbed amount of an irritant such as the bitter or odorous substance or the like onto the immobilized bilayer film to an amount by weight of the irritant such as the bitter or odorous substance or the like in the aqueous solution of a constant volume.
Since frequency changes of 10 Hz or less are considered to be within errors in measurements, the concentration at the frequency change of 10 Hz is defined as a concentration threshold value.

[11] = Example 10; Cholesterylammonium poly(p-styrenesulfonate); halothane 9.48×10^-4 M
[12] = gas phase
From the text: At point B in FIG. 9, the coated crystal oscillator or crystal is removed from the cell into atmosphere with the result that the frequency reverts soon to the same as at point A in FIG. 9, at which the coated crystal oscillator or crystal is placed in the cell. […] In the determination of adsorbed amounts from frequency changes thus obtained, the adsorbed amount is represented in terms of partition coefficient obtained by dividing the adsorbed amount by the total weight of the odorous substance molecules actually existing in the gas phase in order to cancel differences in vapor pressure in the gas phase.

[13] = Table 3, tadpole, intensity of the anesthetic
[14] = Table 6, concentration ratio of aqueous solution, methanol as 1.00
[15] = Comparative Example 7, Polyvinyl alcohol, 45° C., halothane 9.48×10^-4 M
[16] = Comparative Example 5, Polystyrene, 45° C., halothane 9.48×10^-4 M
[17] = Comparative Example 8, PMLG, halothane 9.48×10^-4 M

SMILES: CCCCO [1-butanol]
- Potency atm (tadpole [1]): 9.41 × 10^2

SMILES: CCCCCCCCCCO [1-decanol]
- Potency atm (tadpole [1]): 1.11 × 10^9
- Potency (tadpole [2]; [13]): 1.00 × 10^5

SMILES: CCCCCCO [1-hexanol]
- Potency (tadpole [2]; [13]): 1.12 × 10^3

SMILES: CCCCCCCCCO [1-nonanol]
- Potency atm (tadpole [3]): 2.51 × 10^8
- Potency (tadpole [2]; [13]): 4.03 × 10^4

SMILES: CCCCCCCCO [1-octanol]
- Potency atm (tadpole [3]): 1.21 × 10^7
- Potency (tadpole [2]; [13]): 7.93 × 10^3

SMILES: O=C1C[C@@H]2OCC=C3CN4CC[C@]56c7ccccc7N1[C@H]5[C@H]2[C@H]3C[C@H]46 [Strychnine, strychnine]
- Partition Coefficient ([4]; Table 2, coating: Polyvinyl alcohol film): 0.03 10^-3
- frequency changes due to adsorption ([5]; Comparative Example 4, polystyrene-coated, regardless of temperature, FIG. 12): very little frequency changes
- Partition Coefficient ([5]; Table 2, coating: Polystyrene film): 0.05 10^-3
- frequency changes due to adsorption ([6]; Comparative Example 3, uncoated, regardless of temperature, FIG. 12): little or no frequency changes
- Partition Coefficient ([6]; Table 2, coating: None): 0.03 10^-3
- Partition Coefficient ([7]; Table 2, coating: Polymethyl-L-glutamate film): 0.02 10^-3

SMILES: CC(C)=O [acetone]
- Potency atm (tadpole [1]): 1.76
- Potency (tadpole [2]; [13]): 3.47
- Potency (tadpole [2]; [14]): 3.47

SMILES: OCc1ccccc1 [benzylalcohol]
- Potency atm (tadpole [3]): 6.25 × 10^5
- Potency (tadpole [2]; [13]): 5.01 × 10^2

SMILES: ClC(Cl)Cl [chloroform]
- Potency atm (tadpole [1]): 4.62 × 10^2
- Potency (tadpole [2]; [13]): 7.62 × 10^2

SMILES: CCOCC [diethyl ether]
- Potency atm (tadpole [1]): 6.43

SMILES: CCO [ethanol]
- Potency atm (tadpole [1]): 5.19
- Potency (tadpole [2]; [13]): 2.43
- Potency (tadpole [2]; [14]): 2.43

SMILES: FC(F)(F)C(Cl)Br (centres unmarked) [halothane]
- Adsorbed amounts [4, 15]: 53 ng
- Frequency Changes -ΔF [4, 15]: 50 Hz
- Adsorbed amounts [8]: 74 ng
- Frequency Changes -ΔF [8]: 70 Hz
- Adsorbed amounts [5, 16]: 74 ng
- Frequency Changes -ΔF [5, 16]: 70 Hz
- Potency atm (tadpole [3]): 1.72 × 10^3
- Adsorbed amounts [9]: 249 ng
- Frequency Changes -ΔF [9]: 237 Hz
- Adsorbed amounts [7, 17]: 176 ng
- Frequency Changes -ΔF [7, 17]: 168 Hz
- Adsorbed amounts ([10]; 20° C.): 101 ng
- Frequency Changes -ΔF ([10]; 20° C.): 96 Hz
- Adsorbed amounts ([10]; 45° C.): 318 ng
- Frequency Changes -ΔF ([10]; 45° C.): 303 Hz
- adsorbed amount versus film thickness ([10]; Example 14, aqueous, 45° C., halothane 3.00×10^-4 M, FIG. 19): increased with increased film thickness
- Adsorbed amounts [11]: 82 ng
- Frequency Changes -ΔF [11]: 78 Hz
- Potency (tadpole [2]; [13]): 4.47 × 10^3
- adsorption amount versus film thickness ([12]; Example 20, 25° C., 2 μl halothane, FIG. 23): linearly increased

SMILES: CCCCCC [hexane]
- Potency atm (tadpole [1]): 5.21 × 10^4
- Potency (tadpole [2]; [13]): 6.75 × 10^4

SMILES: CO [methanol]
- Potency (tadpole [2]; [13]): 1.00
- Potency (tadpole [2]; [14]): 1.00

SMILES: COC(F)(F)C(Cl)Cl [methoxyflurane]
- Potency atm (tadpole [3]): 1.82 × 10^4
- Potency (tadpole [2]; [13]): 4.86 × 10^3

SMILES: CC1OC(C)OC(C)O1 (centres unmarked) [paraldehyde]
- Potency atm (tadpole [3]): 8.20 × 10^2

SMILES: CCCCC [pentane]
- Potency atm (tadpole [3]): 3.34 × 10^3
- Potency (tadpole [2]; [13]): 1.51 × 10^4

SMILES: CC(=O)/C=C/C1=C(C)CCCC1(C)C [β-ionone]
- reversibility of adsorption ([10]; 45° C., strychnine 58.3 μM, β-ionone 125 μM, FIG. 7, FIG. 8): reversible
- frequency change in saturated vapor ([12]; Example 6, FIG. 9): the frequency rapidly decreases and then becomes constant soon
